Like-named read-outs stand apart in the source and are kept apart here.
Assays:
Assay type in all cases: biochemical
[1] = molecular target: T1, KLK4 (Homo sapiens, UniProt Q9Y5K2); test: KLK4 enzymatic inhibition, fluorogenic substrate Boc-Val-Pro-Arg-AMC
T1 construct: purchased Viktor Magdolen (TUM), supplied by an academic laboratory
Experimental: The substrate was obtained form Bachem and the enzyme was provided by Viktor Magdolen (TUM). The reaction was monitored with an excitation wavelength of 355 nm and emission wavelength of 460 nm. The initial rate was determined between 2500000 and 4500000 mRFU/min. The reaction mixture contained 25 μM substrate and approximately 1 mU of enzyme in 145 μL of buffer in a final volume of […]. A 50 mM Tris buffer, pH 8.3, was used. From each inhibitor concentration, 5 μL was added, obtaining a final concentration from 0 to 250 μM in a total volume of 0.2 mL. Activity measurements were routinely performed in duplicate. […] IC50 values were obtained by fitting the data with the four-parameter logistics equation using Grafit 7.
[formula] where s=slope factor, v=rate, I0=inhibitor concentration, and range=the fitted uninhibited value minus the background. The equation assumes they falls with increasing x.
(§1) Inhibitor stock solutions were prepared in DMSO and stored at −20° C. Because the compounds described in this paper completely inactivate KLK4 following pseudo first-order kinetics, the IC50 value is inversely correlated with the second-order rate constant of inactivation. For a simple pseudo first-order inactivation process, the activity after incubation with inhibitor (vi) varies with the inhibitor concentration (i), as described in the following equation: vi=v0×e^−k t, where vo is the activity in absence of inhibitor, k is the second-order rate constant of inactivation, and t is the time. The inactivation rate constant was determined from the time course of inhibition.

[2] = molecular target: T2, KLK2 (human) (Homo sapiens, UniProt P20151); test: KLK2 inhibition, fluorogenic substrate H-Pro-Phe-Arg-AMC
T2 construct: purchased Viktor Magdolen, TUMunich (TUM), supplied by an academic laboratory
T2 sequence (P20151 25-261): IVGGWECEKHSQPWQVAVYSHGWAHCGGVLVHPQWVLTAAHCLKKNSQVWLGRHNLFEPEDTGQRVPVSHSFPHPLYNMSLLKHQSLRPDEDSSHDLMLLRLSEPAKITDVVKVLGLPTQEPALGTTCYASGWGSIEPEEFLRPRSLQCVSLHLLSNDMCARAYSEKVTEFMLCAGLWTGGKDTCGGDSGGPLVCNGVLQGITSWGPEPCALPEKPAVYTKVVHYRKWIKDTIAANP
Description: (§2) The IC50 values For KLK1, KLK2 and KLK8 were obtained in a similar way. For plasmin, tPA, thrombin, Fxa, HNE, Plasma kallikrein Chromogenic substrates were used (absorption: 405 nm). (KLK2, KLK4, KLK8 were supplied by Viktor Magdolen TUMunich (TUM)).

[3] = molecular target: T3, KLK1 (human) (Homo sapiens, UniProt P06870); test: KLK1 inhibition, fluorogenic substrate H-Pro-Phe-Arg-AMC
T3 construct: purchased Prospec
T3 sequence (P06870 25-262): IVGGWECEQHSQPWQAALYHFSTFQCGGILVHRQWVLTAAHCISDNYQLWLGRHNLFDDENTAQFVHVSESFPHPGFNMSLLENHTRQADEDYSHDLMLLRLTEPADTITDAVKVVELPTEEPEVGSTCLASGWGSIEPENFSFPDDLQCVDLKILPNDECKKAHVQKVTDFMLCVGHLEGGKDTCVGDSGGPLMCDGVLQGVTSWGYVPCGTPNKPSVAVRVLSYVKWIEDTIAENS
Description: as §2

[4] = molecular target: T4, KLK8 (human) (Homo sapiens, UniProt O60259); test: KLK8 inhibition, fluorogenic substrate Boc-Val-Pro-Arg-AMC
T4 construct: purchased Viktor Magdolen, TUMunich (TUM), supplied by an academic laboratory
T4 sequence (O60259 33-260): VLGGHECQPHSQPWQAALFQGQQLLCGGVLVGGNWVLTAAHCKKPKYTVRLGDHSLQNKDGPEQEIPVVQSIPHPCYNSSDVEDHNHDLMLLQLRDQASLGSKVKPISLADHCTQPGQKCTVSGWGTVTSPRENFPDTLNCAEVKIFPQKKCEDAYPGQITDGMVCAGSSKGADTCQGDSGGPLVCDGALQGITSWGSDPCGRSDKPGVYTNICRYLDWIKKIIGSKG
Description: as §2

[5] = molecular target: T5, uPA (recombinant) (Homo sapiens, UniProt P00749); test: uPA inhibition, chromogenic substrate Biophen CS-61(44)
T5 construct: purchased Nodia

[6] = molecular target: T6, Plasmine (human plasma) (Homo sapiens, UniProt P00747); test: Plasmin inhibition, chromogenic substrate Biophen CS-21(66)
T6 construct: purchased Sigma-Aldrich; host or cells: human plasma
T6 sequence (P00747 581-810 limits assumed): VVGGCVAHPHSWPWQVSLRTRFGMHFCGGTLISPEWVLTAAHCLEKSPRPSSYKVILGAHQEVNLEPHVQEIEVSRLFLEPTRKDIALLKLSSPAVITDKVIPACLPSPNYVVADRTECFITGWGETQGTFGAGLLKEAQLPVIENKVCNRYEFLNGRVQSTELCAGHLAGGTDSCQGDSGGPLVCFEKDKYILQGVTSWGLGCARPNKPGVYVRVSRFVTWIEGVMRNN
T6 sequence (P00747 98-580 partner limits assumed): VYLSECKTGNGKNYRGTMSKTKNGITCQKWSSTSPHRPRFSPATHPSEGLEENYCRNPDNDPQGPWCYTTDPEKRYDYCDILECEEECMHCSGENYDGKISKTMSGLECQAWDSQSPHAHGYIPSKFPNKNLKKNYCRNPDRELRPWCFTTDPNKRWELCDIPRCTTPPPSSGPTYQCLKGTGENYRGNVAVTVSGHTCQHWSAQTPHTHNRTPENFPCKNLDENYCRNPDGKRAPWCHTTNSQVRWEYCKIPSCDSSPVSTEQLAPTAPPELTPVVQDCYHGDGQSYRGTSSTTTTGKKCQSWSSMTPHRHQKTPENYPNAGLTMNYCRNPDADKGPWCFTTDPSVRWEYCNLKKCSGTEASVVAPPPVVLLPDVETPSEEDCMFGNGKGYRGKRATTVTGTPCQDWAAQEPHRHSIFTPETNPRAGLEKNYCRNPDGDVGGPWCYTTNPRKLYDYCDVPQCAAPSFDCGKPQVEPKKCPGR
Description: as §2

[7] = molecular target: T7, Matriptase (Homo sapiens, UniProt Q9Y5Y6); test: Matriptase inhibition
T7 sequence (Q9Y5Y6 1-855): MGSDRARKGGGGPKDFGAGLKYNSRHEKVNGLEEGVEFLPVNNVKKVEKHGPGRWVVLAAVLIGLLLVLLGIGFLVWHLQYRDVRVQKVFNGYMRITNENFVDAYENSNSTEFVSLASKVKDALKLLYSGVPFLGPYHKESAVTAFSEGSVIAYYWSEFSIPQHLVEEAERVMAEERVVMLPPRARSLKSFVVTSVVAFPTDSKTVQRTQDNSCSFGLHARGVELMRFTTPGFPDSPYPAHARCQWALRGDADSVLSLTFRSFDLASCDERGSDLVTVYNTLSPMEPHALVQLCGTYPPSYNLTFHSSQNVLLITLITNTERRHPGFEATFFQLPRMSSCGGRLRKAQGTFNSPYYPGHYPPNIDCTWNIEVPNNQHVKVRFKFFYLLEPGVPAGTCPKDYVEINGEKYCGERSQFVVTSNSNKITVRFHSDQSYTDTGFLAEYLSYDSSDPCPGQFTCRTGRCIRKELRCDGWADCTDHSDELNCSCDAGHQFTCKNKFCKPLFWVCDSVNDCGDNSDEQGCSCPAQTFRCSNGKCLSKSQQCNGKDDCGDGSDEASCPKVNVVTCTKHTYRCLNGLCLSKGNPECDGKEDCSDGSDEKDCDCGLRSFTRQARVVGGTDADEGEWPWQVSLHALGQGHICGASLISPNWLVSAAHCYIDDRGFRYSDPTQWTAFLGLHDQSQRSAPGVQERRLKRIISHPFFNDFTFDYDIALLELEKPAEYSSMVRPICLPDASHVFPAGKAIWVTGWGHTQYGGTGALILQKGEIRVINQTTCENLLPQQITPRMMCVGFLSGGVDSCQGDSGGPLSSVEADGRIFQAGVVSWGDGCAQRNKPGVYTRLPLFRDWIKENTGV

[8] = molecular target: T1, KLK4; test: KLK4 inactivation kinetics from progress curves (kobs vs inhibitor concentration); details: for Irreversible (KLK4): irreversible binding to KLK4, Yes/No
Experimental: as §1
The inhibitor was mixed with the substrate (250 μM final concentration), and the buffer solution with the enzyme was added at the time zero. […] The progress curves show the absorbance of aminomethylcoumarine produced as a function of time. Initially, no inhibitor is bound to the enzyme, and the tangent to the progress curve (dA/dt) is proportional to the concentration of the free enzyme. The concentration of free enzyme decreases over time due to the kinetics of inhibitor binding, as described above. Progress curves were recorded in pseudo first-order conditions ([I]0>>[E]0) and with less than 10% conversion of the substrate during the entire time course. In these conditions, dA/dt decreases exponentially with time. The progress curves were fitted with the integrated rate equation to yield a value for kobs, a pseudofirst-order rate constant At=v0[1−e^−k^obs^t]/kobs+A0 where At=absorbance at time t, A0=absorbance at time zero, and v0=uninhibited initial rate.
The apparent second-order rate constant (kapp) was calculated from the slope of the linear part of the plot of kobs versus the inhibitor concentration ([I]0). In case of competition between the inhibitor and the substrate, kapp is smaller than the “real” second order rate constant k discussed above because a certain fraction of the enzyme is present as an enzyme-substrate complex. kapp depends on the substrate concentration used in the experiment, as described by Lambeir et al. (Lambeir, Borloo et al. 1996).

[9] = molecular target: T8, tPA (recombinant) (Homo sapiens, UniProt P00750); test: tPA inhibition, chromogenic substrate Biophen CS-05(88); details: Tris buffer pH 8.3; read-out: IC50 tPA
T8 construct: purchased Nodia
T8 sequence (P00750 36-562, species assumed): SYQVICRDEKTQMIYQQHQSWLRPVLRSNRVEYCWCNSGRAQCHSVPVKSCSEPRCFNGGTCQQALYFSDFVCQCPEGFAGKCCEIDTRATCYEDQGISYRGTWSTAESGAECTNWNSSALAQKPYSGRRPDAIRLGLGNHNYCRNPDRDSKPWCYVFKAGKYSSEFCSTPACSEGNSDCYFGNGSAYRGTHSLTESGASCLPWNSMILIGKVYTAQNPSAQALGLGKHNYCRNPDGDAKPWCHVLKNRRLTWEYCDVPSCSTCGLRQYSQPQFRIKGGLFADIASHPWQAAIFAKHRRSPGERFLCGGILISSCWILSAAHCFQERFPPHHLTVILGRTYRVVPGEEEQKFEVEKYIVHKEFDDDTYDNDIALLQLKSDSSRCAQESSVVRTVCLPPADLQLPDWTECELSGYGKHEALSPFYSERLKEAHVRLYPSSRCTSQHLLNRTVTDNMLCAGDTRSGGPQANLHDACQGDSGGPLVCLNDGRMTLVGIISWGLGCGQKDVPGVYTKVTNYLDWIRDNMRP
Description: as §2

[10] = molecular target: T9, Thrombine (human plasma) (Homo sapiens, UniProt P00734); test: Thrombin inhibition, chromogenic substrate Biophen CS-21(66)
T9 construct: purchased Sigma-Aldrich; host or cells: human plasma

[11] = molecular target: T10, FXa (Homo sapiens, UniProt P00742); test: FXa inhibition, chromogenic substrate Biophen CS-11(32); details: Tris buffer pH 8.3; read-out: IC50 FXa
T10 construct: purchased Nodia
T10 sequence (P00742 235-488 limits assumed): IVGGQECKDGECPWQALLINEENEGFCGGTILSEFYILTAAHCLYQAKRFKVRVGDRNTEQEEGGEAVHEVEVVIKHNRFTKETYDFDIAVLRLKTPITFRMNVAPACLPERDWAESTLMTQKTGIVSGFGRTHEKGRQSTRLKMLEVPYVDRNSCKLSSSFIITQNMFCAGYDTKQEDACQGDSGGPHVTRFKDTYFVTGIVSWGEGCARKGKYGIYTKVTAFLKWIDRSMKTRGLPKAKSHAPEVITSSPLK
T10 sequence (P00742 41-179 partner limits assumed): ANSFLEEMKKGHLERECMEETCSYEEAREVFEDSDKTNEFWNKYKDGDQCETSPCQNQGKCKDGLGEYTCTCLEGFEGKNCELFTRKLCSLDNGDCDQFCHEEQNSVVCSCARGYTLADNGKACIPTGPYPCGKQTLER
Description: as §2

[12] = molecular target: T11, PlasmaKLK (human plasma) (Homo sapiens, UniProt P03952); test: Plasma kallikrein inhibition, chromogenic substrate Biophen CS-31(02); details: Plasma KLK; Tris buffer pH 7.8; read-out: IC50 pKLK
T11 construct: purchased Sigma-Aldrich; host or cells: human plasma
T11 sequence (P03952 391-638 limits assumed): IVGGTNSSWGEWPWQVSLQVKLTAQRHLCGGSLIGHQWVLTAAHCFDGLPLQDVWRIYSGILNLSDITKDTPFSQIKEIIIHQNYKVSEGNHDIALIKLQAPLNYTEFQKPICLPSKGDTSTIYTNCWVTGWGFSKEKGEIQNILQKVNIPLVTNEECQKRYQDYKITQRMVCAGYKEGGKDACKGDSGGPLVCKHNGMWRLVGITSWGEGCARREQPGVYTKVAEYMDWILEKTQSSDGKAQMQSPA
T11 sequence (P03952 20-390 partner limits assumed): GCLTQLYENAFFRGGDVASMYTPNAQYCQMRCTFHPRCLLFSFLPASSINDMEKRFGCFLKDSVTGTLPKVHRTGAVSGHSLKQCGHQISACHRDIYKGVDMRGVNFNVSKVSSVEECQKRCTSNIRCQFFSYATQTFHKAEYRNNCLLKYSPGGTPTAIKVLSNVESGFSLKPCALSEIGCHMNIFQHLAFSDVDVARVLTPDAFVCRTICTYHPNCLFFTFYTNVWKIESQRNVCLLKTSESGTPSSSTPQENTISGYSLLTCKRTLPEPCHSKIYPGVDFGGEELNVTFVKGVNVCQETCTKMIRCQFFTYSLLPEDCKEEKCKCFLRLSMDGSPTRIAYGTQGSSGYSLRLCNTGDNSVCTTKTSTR
Description: as §2

[13] = 15 min pre-incubation at 37° C., Tris buffer pH 8.3, read-out: IC50 KLK4
[14] = Tris buffer pH 8.8, read-out: IC50 uPA
[15] = Thrombin, Tris buffer pH 8.3, read-out: IC50 THR
[16] = Plasmin, Tris buffer pH 7.4, read-out: IC50 PLM
[17] = Tris buffer pH 7.8, read-out: IC50 KLK1

T1 sequence (Q9Y5K2 31-254): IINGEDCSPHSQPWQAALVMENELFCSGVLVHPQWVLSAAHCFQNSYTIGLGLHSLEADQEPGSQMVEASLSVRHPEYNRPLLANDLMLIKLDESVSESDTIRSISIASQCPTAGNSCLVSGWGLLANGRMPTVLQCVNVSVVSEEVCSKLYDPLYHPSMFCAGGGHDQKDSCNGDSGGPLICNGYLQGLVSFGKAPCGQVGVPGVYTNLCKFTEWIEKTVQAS

Molecule | IC50 [1] [nM] | IC50 [2] [nM] | IC50 [3] [nM] | IC50 [4] [nM] | IC50 [5] [nM] | IC50 [6] [µM] | IC50 [7] [nM] | kapp KLK4 ([8]; apparent second-order rate constant, substrate 250 μM) [M⁻¹ s⁻¹] | Irreversible (KLK4) [8] | IC50 [1, 13] [nM] | IC50 [5, 14] [nM] | IC50 [9] [µM] | IC50 [10, 15] [µM] | IC50 [6, 16] [µM] | IC50 [11] [µM] | IC50 [12] [µM] | IC50 [3, 17] [nM] | IC50 ([7]; Matriptase, read-out: IC50 MAT) [nM] | IC50 [10] [µM]
N=C(N)Nc1ccc(C(NC(=O)OCCCC(F)(F)F)P(=O)(Oc2ccccc2)Oc2ccccc2)cc1 (stereo not drawn) [Compound 107, 4,4,4-trifluorobutyl ((diphenoxyphosphoryl)(4-guanidinophenyl)methyl) carbamate] | < 100 | 100 to 1000 | 2500 to 10000 | 2500 to 10000 | 2500 to 10000 | 10 to 250 | 2500 to 10000 | – | – | – | – | – | – | – | – | – | – | – | –
CSCCOC(=O)NC(c1ccc(NC(=N)N)cc1)P(=O)(Oc1ccccc1)Oc1ccccc1 (stereo not drawn) [Compound 108, 2-(methylthio)ethyl ((diphenoxyphosphoryl)(4-guanidinophenyl)methyl) carbamate] | < 100 | 100 to 1000 | 1000 to 2500 | 1000 to 2500 | 2500 to 10000 | 10 to 250 | 2500 to 10000 | – | – | – | – | – | – | – | – | – | – | – | –
N=C(N)Nc1ccc(C(NC(=O)OCc2c(F)c(F)c(F)c(F)c2F)P(=O)(Oc2ccccc2)Oc2ccccc2)cc1 (stereo not drawn) [Compound 109, (perfluorophenyl)methyl ((diphenoxyphosphoryl)(4-guanidinophenyl)methyl) carbamate] | < 100 | 100 to 1000 | 100 to 1000 | 1000 to 2500 | 2500 to 10000 | 10 to 250 | 1000 to 2500 | – | – | – | – | – | – | – | – | – | – | – | –
COCCOCCOCCOC(=O)NC(c1ccc(NC(=N)N)cc1)P(=O)(Oc1ccccc1)Oc1ccccc1 (stereo not drawn) [Compound 110, 2-(2-(2-methoxyethoxy)ethoxy)ethyl ((diphenoxyphosphoryl)(4-guanidinophenyl)methyl)carbamate] | < 100 | – | 2500 to 10000 | 1000 to 2500 | 2500 to 10000 | 10 to 250 | 2500 to 10000 | 19600 | Yes/ | – | – | – | – | – | – | – | – | – | –
COCCOCCOC(=O)NC(c1ccc(NC(=N)N)cc1)P(=O)(Oc1ccc(NC(C)=O)cc1)Oc1ccc(NC(C)=O)cc1 (stereo not drawn) [Compound 114, 2-(2-methoxyethoxy)ethyl ((bis(4-acetamidophenoxy)phosphoryl)(4-guanidinophenyl)methyl) carbamate] | < 100 | 100 to 1000 | 2500 to 10000 | 1000 to 2500 | 2500 to 10000 | 10 to 250 | 1000 to 2500 | – | – | – | – | – | – | – | – | – | – | – | –
N=C(N)Nc1ccc(C(NS(=O)(=O)c2ccccc2)P(=O)(Oc2ccccc2)Oc2ccccc2)cc1 (stereo not drawn) [Compound 127, diphenyl ((4-guanidinophenyl)(phenylsulfonamido)methyl)phosphonate] | – | – | – | – | – | – | – | – | – | 2500 to 10000 | 2500 to 10000 | 2.5 to 10 | 2.5 to 10 | 2.5 to 10 | 2.5 to 10 | 2.5 to 10 | – | – | –
N=C(N)Nc1ccc(C(NS(=O)(=O)c2ccc(C(F)(F)F)cc2)P(=O)(Oc2ccccc2)Oc2ccccc2)cc1 (stereo not drawn) [Compound 130] | – | – | – | – | – | – | – | – | – | < 100 | – | – | – | – | – | – | – | – | –
N=C(N)Nc1ccc(C(NC(=O)OCCOCCOCc2cn(CCOCCOCCOCCNC(=O)CCCC[C@H]3SC[C@H]4NC(=O)N[C@H]43)nn2)P(=O)(Oc2ccccc2)Oc2ccccc2)cc1 (stereo partly drawn) [Compound 135, 2-(2-((1-(13-oxo-17-((3aR,4R,6aS)-2-oxohexahydro-1H-thieno[3,4-d]imidazol-4-yl)-3,6,9-trioxa-12-azaheptadecyl)-1H-1,2,3-triazol-4-yl)methoxy)ethoxy)ethyl ((diphenoxyphosphoryl)(4-guanidinophenyl)methyl)carbamate] | – | – | – | – | – | – | – | – | – | < 100 | 2500 to 10000 | – | 10 to 250 | 10 to 250 | 10 to 250 | 10 to 250 | 2500 to 10000 | 2500 to 10000 | –
C#CCOCCOCCOC(=O)NC(Cc1ccc(NC(=N)N)cc1)P(=O)(Oc1ccccc1)Oc1ccccc1 (stereo not drawn) [UPA2, reference compound] | – | – | – | – | < 100 | – | – | – | No | – | – | > 250 | – | 2.5 to 10 | > 250 | 10 to 250 | – | 100 to 1000 | 10 to 250
diphenyl ((4-guanidinophenyl)(4-methoxyphenylsulfonamido)methyl)phosphonate [Compound 132] | – | – | – | – | – | – | – | – | – | 100 to 1000 | 2500 to 10000 | 2.5 to 10 | 2.5 to 10 | 2.5 to 10 | 2.5 to 10 | 2.5 to 10 | 2500 to 10000 | – | –
diphenyl ((4-guanidinophenyl)(phenylsulfonamido)methyl)phosphonate [Compound 128] | – | – | – | – | – | – | – | – | – | 100 to 1000 | 2500 to 10000 | 2.5 to 10 | 2.5 to 10 | 2.5 to 10 | 2.5 to 10 | 2.5 to 10 | – | – | –

Source: patent publication US10017527B2, “KLK4 inhibitors” (Universiteit Antwerpen, priority 2014, dated 2018)
